What all share (assay type): cell-based, human
The test system of series [1] is HDF cells. As to the kind of experiment: Cell cycle analysis, PI staining flow cytometry. The method, then: Figure 4 (A) SRB and Trypan blue cell viability assays performed in cells treated with or without Shikimic acid (5, 10, 25 and 50 mM) for 24h. (B) Apoptosis detection using the Annexin V-FITC/PI double staining followed by flow cytometry in non-irradiated and non-treated cells, irradiated and non-treated cells and irradiated cells treated with Shikimic acid (10, 25 and 50 mM). (C) Representation and statistical analysis of the percentage of apoptotic cells in each of the conditions analyzed. (D) Cell cycle analysis using PI staining followed by flow cytometry. (E) Relative p16^INK4a mRNA levels monitored by qPCR in the indicated conditions. Student T-test, *p<0.05. (F) Immunofluorescence of γH2AX in non-irradiated and non-treated cells, irradiated and non-treated cells and irradiated cells treated with Shikimic acid (10, 25 and 50 mM). (G) Principal component analysis (PCA) on Savitzky–Golay second derivatized spectra in the fingerprint region (1800–950 cm−1) for non-irradiated cells (No UVB), irradiated non-treated cells (UVB), irradiated cells treated with Shikimic acid 25 mM (UVB SA) and irradiated cells treated with Shikimic acid 25 mM plus EX-527 1 μM (UVB SA+EX-527). Student T-test, *p<0.05, **p<0.01, ***p<0.001. (H) Beta-sheet to alpha-helix ratio obtained by curve-fitting analysis of the amide I band (1700-1600 cm-1).
Fluorescence-activated cell sorting (FACS) analyses of the cell cycle and apoptosis were carried out using, respectively, a Propidium Iodide Flow Cytometry Kit (Abcam, UK), and an Annexin V-FITC Apoptosis Staining/Detection Kit (Abcam, UK), following the manufacturer’s instructions.
Senescence induction by UVB irradiation For the non-irradiation control conditions, HDF were plated at a density of 6×10^4 cells/plate in 6-well
HDF were plated at a density of 6×10^4 cells/plate in 6- plates. After 24h, culture medium was removed and well plates. After 24h, culture medium was removed replaced by fresh cell culture medium containing the and replaced with fresh cell culture medium containing compounds at different concentrations. […]

In another series the test system is spliced-XBP1. The experiment in a line: Spliced XBP1 mRNA (qPCR). To be noted: UVB-irradiated cells, SA treatment. The method, then:
Figure 5 (A) Western-blot of BiP proteins levels in UVB or non UVB irradiated cells treated with SA at the indicated concentrations in presence or absence of EX-527 1 μM. (B) Quantification of n=3 experiments as (A). The levels of BiP are normalized by the loading control (histone H3) and represented related to the conditions in UVB irradiated cells in absence of SA and EX-527. Student T-test, *p<0.05. (C) Percentage of SA-β-Gal in assays performed as in Figure 3C. (D) Levels of spliced and unspliced XBP1 mRNA monitored by qPCR analysis in cells treated in the indicated conditions in presence or absence of SA and/or EX-527. The levels were normalized by internal controls and represented in each case related to the conditions in UVB irradiated cells in absence of SA and EX-527. […]
(§1) RNA was extracted from cell pellets using the Total RNA Purification Kit (Norgen, Canada), according to the manufacturer’s protocol. Extracted RNA was quantified using a NanoDrop® ND-1000 UV-Vis Spectrophotometer (Thermo Fisher Scientific, USA) and 300 ng of RNA were retrotranscribed to cDNA using the PrimeScriptTM RT reagent kit (Takara Bio Inc., Japan). cDNA was diluted 1/10 in ultrapure water and qPCR mix was prepared by adding cDNA (12 ng), SYBR green supermix (Bio Rad, USA), forward and reverse primers (0.2μM). […] The results were analyzed with Bio-Rad CFX Manager software. […]

The test system of series [2] is HDF cells. As to the kind of experiment: SRB and Trypan blue cell viability assays. To be noted: Shikimic acid 5, 10, 25 and 50 mM, 24h. The method, then: (§2) Student T-test, *p<0.05, **p<0.01, ***p<0.001.
The protocol for senescence induction using UVB irradiation is described in the Supplementary Methods. SA-β-Gal staining, WST-1, sulforhodamine B (SRB) and trypan blue assays were performed as previously described. For the siRNA experiments, the protocol for senescence induction using UVB irradiation was the same as in the Supplementary Methods. Specific siRNA (Horizon discovery, UK) for SIRT1, SIRT2, SIRT6, BiP or scramble siRNA were incubated for 6 hours before each irradiation step.

In another series the test system is p16^INK4a. As to the kind of experiment: p16INK4a mRNA levels (qPCR). To be noted: UVB-irradiated HDF, SA treatment. The protocol: Figure 4 (A) SRB and Trypan blue cell viability assays performed in cells treated with or without Shikimic acid (5, 10, 25 and 50 mM) for 24h. (B) Apoptosis detection using the Annexin V-FITC/PI double staining followed by flow cytometry in non-irradiated and non-treated cells, irradiated and non-treated cells and irradiated cells treated with Shikimic acid (10, 25 and 50 mM). (C) Representation and statistical analysis of the percentage of apoptotic cells in each of the conditions analyzed. (D) Cell cycle analysis using PI staining followed by flow cytometry. (E) Relative p16^INK4a mRNA levels monitored by qPCR in the indicated conditions. Student T-test, *p<0.05. […]
as §1
On the technique in general: Quantitative PCR measures a nucleic acid by following its amplification.

For the next series, the system named is SIRT1. The experiment in a line: SIRT1 mRNA and protein levels in HDF. To be noted: Shikimic acid 5, 10, 25, 50 mM, 24h. The method, then:
RNA was extracted from cell pellets using the Total RNA Purification Kit (Norgen, Canada), according to the manufacturer’s protocol. Extracted RNA was quantified using a NanoDrop® ND-1000 UV-Vis Spectrophotometer (Thermo Fisher Scientific, USA) and 300 ng of RNA were retrotranscribed to cDNA using the PrimeScriptTM RT reagent kit (Takara Bio Inc., Japan). cDNA was diluted 1/10 in ultrapure water and qPCR mix was prepared by adding cDNA (12 ng), SYBR green supermix (Bio Rad, USA), forward and reverse primers (0.2μM). The primers and their respective sequences are listed in Supplementary Table 1. qPCR protocol included one step at 95° C for 30 s, 40 cycles at 95° C for 10s, and 60° C for 1min. The results were analyzed with Bio-Rad CFX Manager software. BACT was used as a housekeeping gene to normalize gene expression.
Protein levels were analyzed as previously described. Cells were directly lysed in 1x Laemmli Buffer (Bio-Rad, USA), incubated at 95° C and centrifuged. Supernatant was subjected to SDS-polyacrylamide gel electrophoresis, and successive steps were performed as described. The list of antibodies used is included in Supplementary Table 2.
as §2
(1 picture or pasted object on this page, not shown here)

SMILES strings stand for the structures.

`O=C(O)C1=C[C@@H](O)[C@@H](O)[C@H](O)C1` [Shikimic acid]: in the series with HDF cells [1] (UVB irradiation), the “frequency of polyploidies” value is given as “did not alter the accumulation of DNA damage or the frequency of polyploidies”. Further, the “cells in S-phase” value with HDF cells [1] (UVB-irradiated HDF) is “progressive increase in the number of cells in S-phase”. In the series on HDF cells [1] (absence of UVB irradiation), the “cell cycle” value is reported as “did not alter the cell cycle”. For the same molecule, the “spliced XBP1 mRNA levels” value with spliced-XBP1 is “induced a decrease in spliced-XBP1”. Further, the “cytotoxicity (SRB/trypan blue assay)” value with HDF cells [2] is given as “no differences in cytotoxicity”. For the same molecule, in the series with p16^INK4a, the “p16INK4a mRNA levels” value was “downregulation of the cell cycle regulator p16”. For the same molecule, the “SIRT1 gene expression and protein levels” value in the series with SIRT1 was “did not observe any significant correlation with gene expression and protein levels”.

(Values after paper PMC8148468, “Shikimic acid protects skin cells from UV-induced senescence through activation of the NAD+-dependent deacetylase SIRT1” (Aging (Albany NY), 2021).)
